# Experimental data as given in patent US11702404B2, “GLP-1R modulating compounds” (priority 2019, dated 2023).
# Target: GLP-1R (Homo sapiens, UniProt P43220)
# Test: GLP-1R activation: cAMP increase in CHO cells stably expressing GLP-1R
# Format: cell-based
# Conditions: cAMP increase, CHO cells stably expressing GLP-1R, 10 point dose response, 30 minutes incubation; read-out: EC50
# GLP-1R, sequence (P43220 24-463): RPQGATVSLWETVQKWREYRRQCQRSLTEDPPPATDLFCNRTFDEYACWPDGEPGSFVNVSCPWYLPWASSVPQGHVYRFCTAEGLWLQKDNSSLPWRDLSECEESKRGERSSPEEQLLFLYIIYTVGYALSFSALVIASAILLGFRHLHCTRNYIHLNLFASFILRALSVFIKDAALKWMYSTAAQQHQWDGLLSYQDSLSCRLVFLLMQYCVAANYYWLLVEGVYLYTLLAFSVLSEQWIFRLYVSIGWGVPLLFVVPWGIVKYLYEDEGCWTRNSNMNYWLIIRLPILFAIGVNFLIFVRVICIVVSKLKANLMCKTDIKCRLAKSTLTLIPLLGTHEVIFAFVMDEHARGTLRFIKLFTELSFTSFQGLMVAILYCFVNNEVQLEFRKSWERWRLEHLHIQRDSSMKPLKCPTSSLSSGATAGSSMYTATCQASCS
row,EC50,SMILES
1,2.7 nM,"CC(C)(CF)Cn1c(Cc2ccc(-c3cccc(OCc4ccc(C#N)cc4F)n3)cc2F)nc2ccc(C(=O)O)cc21 [Example 11, 2-(4-(6-((4-cyano-2-fluorobenzyl)oxy)pyridin-2-yl)-2-fluorobenzyl)-1-(3-fluoro-2,2-dimethylpropyl)-1H-benzo[d]imidazole-6-carboxylic acid]"
2,1.77 nM,"CC(C)(Cn1c(Cc2ccc(-c3cccc(OCc4ccc(C#N)cc4F)n3)cc2F)nc2ccc(C(=O)O)cc21)C(F)F [Example 12, 2-(4-(6-((4-cyano-2-fluorobenzyl)oxy)pyridin-2-yl)-2-fluorobenzyl)-1-(3,3-difluoro-2,2-dimethylpropyl)-1H-benzo[d]imidazole-6-carboxylic acid]"
3,28.8 nM,"COCCn1c(Cc2ncc(-c3cccc(OCc4ccc(C#N)cc4F)n3)cn2)nc2ccc(C(=O)O)cc21 [Example 58, 2-((5-(6-((4-cyano-2-fluorobenzyl)oxy)pyridin-2-yl)pyrimidin-2-yl)methyl)-1-(2-methoxyethyl)-1H-benzo[d]imidazole-6-carboxylic acid]"
4,20.7 nM,"COCCn1c(Cc2ccc(-c3cccc(OCc4ccc(C#N)c5c4OCCC5)n3)cc2F)nc2ccc(C(=O)O)cc21 [Example 144, 2-(4-(6-((5-cyanochroman-8-yl)methoxy)pyridin-2-yl)-2-fluorobenzyl)-1-(2-methoxyethyl)-1H-benzo[d]imidazole-6-carboxylic acid]"
5,2040 nM,"COCCn1c(Cc2ccc(-c3cccc(OCc4cccc5c4OCCN5C)n3)cc2F)nc2ccc(C(=O)O)cc21 [Example 149, 2-(2-fluoro-4-(6-((4-methyl-3,4-dihydro-2H-benzo[b][1,4]oxazin-8-yl)methoxy)pyridin-2-yl)benzyl)-1-(2-methoxyethyl)-1H-benzo[d]imidazole-6-carboxylic acid]"
6,3.35 nM,"COCCn1c(Cc2ccc(-c3cccc(OCc4ccc(C(F)F)cc4F)n3)cc2F)nc2ccc(C(=O)O)cc21 [Example 150, 2-(4-(6-((4-(difluoromethyl)-2-fluorobenzyl)oxy)pyridin-2-yl)-2-fluorobenzyl)-1-(2-methoxyethyl)-1H-benzo[d]imidazole-6-carboxylic acid]"
7,7.93 nM,"COCCn1c(Cc2ccc(-c3cccc(OCc4ccc(Br)c5nsnc45)n3)cc2F)nc2ccc(C(=O)O)cc21 [Example 151, 2-(4-(6-((7-bromobenzo[c][1,2,5]thiadiazol-4-yl)methoxy)pyridin-2-yl)-2-fluorobenzyl)-1-(2-methoxyethyl)-1H-benzo[d]imidazole-6-carboxylic acid]"
8,3960 nM,"COCCn1c(Cc2ccc(-c3cccnc3OCc3ccccc3)cc2F)nc2ccc(C(=O)O)cc21 [Example 183, 2-(4-(2-(benzyloxy)pyridin-3-yl)-2-fluorobenzyl)-1-(2-methoxyethyl)-1H-benzo[d]imidazole-carboxylic acid]"
9,62.7 nM,"COCCn1c(Cc2ccc(-c3cccc(OCC(=O)c4ccc(OC)cc4)n3)cc2F)nc2ccc(C(=O)O)cc21 [Example 215, 2-(2-fluoro-4-(6-(2-(4-methoxyphenyl)-2-oxoethoxy)pyridin-2-yl)benzyl)-1-(2-methoxyethyl)-1H-benzo[d]imidazole-6-carboxylic acid]"
10,14.3 nM,"COCCn1c(Cc2ccc(-c3cccc(OCc4cnc(Cl)nc4OC)n3)cc2F)nc2ccc(C(=O)O)cc21 [Example 227, 2-(4-(6-((2-chloro-4-methoxypyrimidin-5-yl)methoxy)pyridin-2-yl)-2-fluorobenzyl)-1-(2-methoxyethyl)-1H-benzo[d]imidazole-6-carboxylic acid]"
11,0.15 nM,"COc1cc(Cl)ccc1COc1nccc(-c2cc(F)c(Cc3nc4ccc(C(=O)O)cc4n3CC3(CC#N)CC3)cc2F)n1 [Example 446, 2-(4-(2-((4-chloro-2-methoxybenzyl)oxy)pyrimidin-4-yl)-2,5-difluorobenzyl)-1-((1-(cyanomethyl)cyclopropyl)methyl)-1H-benzo[d]imidazole-6-carboxylic acid]"
12,≥ 1000 nM,"NC(=O)c1ccc(COc2cc(-c3ccc(Cc4nc5ccc(C(=O)O)cc5[nH]4)c(F)c3)ccc2F)c(F)c1 [Example 469, 2-((3′-((4-carbamoyl-2-fluorobenzyl)oxy)-3,4′-difluoro-[1,1′-biphenyl]-4-yl)methyl)-1H-benzo[d]imidazole-6-carboxylic acid]"
13,4250 nM,"COCCn1c(Cc2cc(F)c(-c3nc(OCc4ccc(C#N)cc4F)c(F)cc3F)cc2F)nc2ccc(C(=O)O)cc21 [Example 538, 2-(4-(6-((4-cyano-2-fluorobenzyl)oxy)-3,5-difluoropyridin-2-yl)-2,5-difluorobenzyl)-1-(2-methoxyethyl)-1H-benzo[d]imidazole-6-carboxylic]"
14,255 nM,"CO[C@H]1C[C@@H](n2c(Cc3cc(F)c(-c4cccc(OCc5ccc(C#N)cc5F)n4)cc3F)nc3ccc(C(=O)O)cc32)C1 [Example 566, 2-(4-(6-((4-cyano-2-fluorobenzyl)oxy)pyridin-2-yl)-2,5-difluorobenzyl)-1-((1s,3s)-3-methoxycyclobutyl)-1H-benzo[d]imidazole-6-carboxylic acid]"
15,0.23 nM,"N#Cc1ccc(COc2cccc(-c3cc(F)c(Cc4nc5c(F)cc(C(=O)O)cc5n4Cc4ncco4)cc3F)n2)c(F)c1 [Example 584, 2-(4-(6-((4-cyano-2-fluorobenzyl)oxy)pyridin-2-yl)-2,5-difluorobenzyl)-4-fluoro-1-(oxazol-2-ylmethyl)-1H-benzo[d]imidazole-6-carboxylic acid]"
16,3190 nM,"COCCn1c(Cc2ccc(-c3cccc(OCc4nnc(Cl)s4)n3)cc2F)nc2ccc(C(=O)O)cc21 [Example 590, 2-(4-(6-((5-chloro-1,3,4-thiadiazol-2-yl)methoxy)pyridin-2-yl)-2-fluorobenzyl)-1-(2-methoxyethyl)-1H-benzo[d]imidazole-6-carboxylic acid]"
17,1.48 nM,N#Cc1ccc(COc2nccc(-c3ccc(Cc4nc5c(F)cc(C(=O)O)cc5n4Cc4ncco4)cc3F)n2)c(F)c1 [Example 618]
18,1.18 nM,N#Cc1ccc(COc2cccc(-c3cc(F)c(Cc4nc5ccc(C(=O)O)cc5n4CC4(CO)CC4)cc3F)n2)c(F)c1 [Example 637]
19,22.6 nM,CC12COC(Cn3c(Cc4cc(F)c(-c5cccc(OCc6ccc(C#N)cc6F)n5)cc4F)nc4ccc(C(=O)O)cc43)(C1)C2 [Example 741]
20,0.08 nM,O=C(O)c1ccc2nc(Cc3cc(F)c(-c4nc(OCc5ccc(C(F)F)cc5F)ccc4F)cc3F)n(C[C@@H]3CCO3)c2c1 [Example 787]
21,4.55 nM,"COCCn1c(Cc2cc(F)c(-c3cccc(OCc4ccc(C#N)cc4F)n3)c(F)c2F)nc2ccc(C(=O)O)cc21 [Example 856, 2-(4-(6-((4-cyano-2-fluorobenzyl)oxy)pyridin-2-yl)-2,3,5-trifluorobenzyl)-1-(2-methoxyethyl)-1H-benzo[d]imidazole-6-carboxylic acid]"
22,3.71 nM,COCCn1c(Cc2cc(F)c(-c3cccc(OCc4ccc(C(F)(F)F)s4)n3)cc2F)nc2ccc(C(=O)O)cc21 [Example 864]
23,69.5 nM,"COC1(Cn2c(Cc3cc(F)c(-c4cccc(OCc5ccc(C#N)cc5F)n4)cc3F)nc3ccc(C(=O)O)cc32)CN(C(=O)C2CC2)C1 [Example 889, 2-(4-(6-((4-cyano-2-fluorobenzyl)oxy)pyridin-2-yl)-2,5-difluorobenzyl)-1-((1-(cyclopropanecarbonyl)-3-methoxyazetidin-3-yl)methyl)-1H-benzo[d]imidazole-6-carboxylic acid]"

# System: not listed separately
# Test: Microsomal stability, human liver microsomes (predicted hepatic clearance)
# Conditions: predicted from in vitro microsomal stability data
row,Predicted Hepatic Clearance (Pred. Cl.),SMILES
1,5.17 mL/min/kg,"N#Cc1ccc(COc2cccc(-c3ccc(Cc4nc5ccc(C(=O)O)cc5n4CC4CCO4)c(F)c3)n2)c(F)c1 (single isomer, unassigned) [Example 67, 2-(4-(6-((4-Cyano-2-fluorobenzyl)oxy)pyridin-2-yl)-2-fluorobenzyl)-1-(oxetan-2-ylmethyl)-1H-benzo[d]imidazole-6-carboxylic acid]"
2,<1.83 mL/min/kg,"N#Cc1ccc(COc2cccc(-c3ccc(Cc4nc5ccc(C(=O)O)cc5n4CC4CCO4)c(F)c3)n2)c(F)c1 (single isomer, unassigned) [Example 68, 2-(4-(6-((4-Cyano-2-fluorobenzyl)oxy)pyridin-2-yl)-2-fluorobenzyl)-1-(oxetan-2-ylmethyl)-1H-benzo[d]imidazole-6-carboxylic acid]"
3,6 mL/min/kg,"COCCn1c(C(C)c2ccc(-c3cccc(OCc4ccc(C#N)cc4F)n3)cc2)nc2ccc(C(=O)O)cc21 (single isomer, unassigned) [Example 439, 2-(1-(4-(6-((4-cyano-2-fluorobenzyl)oxy)pyridin-2-yl)phenyl)ethyl)-1-(2-methoxyethyl)-1H-benzo[d]imidazole-6-carboxylic acid]"
4,3.3 mL/min/kg,"N#Cc1ccc(COc2cccc(-c3ccc(Cc4nc5ccc(C(=O)O)cc5n4CC4CCO4)c(F)c3)n2)c(F)c1 (stereo not drawn) [Example 15, 2-(4-(6-((4-cyano-2-fluorobenzyl)oxy)pyridin-2-yl)-2-fluorobenzyl)-1-(oxetan-2-ylmethyl)-1H-benzo[d]imidazole-6-carboxylic acid]"
5,7 mL/min/kg,"COCCn1c(Cn2cc(-c3csc(OCc4ccc(C#N)cc4F)n3)cn2)nc2ccc(C(=O)O)cc21 [Example 78, 2-((4-(2-((4-cyano-2-fluorobenzyl)oxy)thiazol-4-yl)-1H-pyrazol-1-yl)methyl)-1-(2-methoxyethyl)-1H-benzo[d]imidazole-6-carboxylic acid]"
6,2.33 mL/min/kg,"COCCn1c(Cc2ccc(-c3cc(-c4cnn(C)c4)cc(OCc4ccc(C#N)cc4F)n3)cc2F)nc2ccc(C(=O)O)cc21 [Example 99, 2-(4-(6-((4-cyano-2-fluorobenzyl)oxy)-4-(1-methyl-1H-pyrazol-4-yl)pyridin-2-yl)-2-fluorobenzyl)-1-(2-methoxyethyl)-1H-benzo[d]imidazole-6-carboxylic acid]"
7,<1.83 mL/min/kg,"COCCn1c(Cc2ccc(-c3cc(C#Cc4ccccc4)cc(OCc4ccc(C#N)cc4F)n3)cc2F)nc2ccc(C(=O)O)cc21 [Example 100, 2-(4-(6-((4-cyano-2-fluorobenzyl)oxy)-4-(phenylethynyl)pyridin-2-yl)-2-fluorobenzyl)-1-(2-methoxyethyl)-1H-benzo[d]imidazole-6-carboxylic acid]"
